Measurements from paper PMC12249663, “Identification and Screening of Novel Antioxidant Peptides from Yak Skin and Their Protective Effect on H2O2-Induced HepG2 Cells Oxidation” (International Journal of Molecular Sciences, 2025).
Like-named read-outs stand apart in the source and are kept apart here.

Experiments:
HepG2 cells = conditions: 2 h, CCK-8, mean ± SD
Procedure: HepG2 cells were cultured in 96-well plates at a density of 5 × 10^4 cells/mL for 24 h. After the medium was removed, 100 µL of complete medium containing different concentrations of H2O2 (800, 1000, 1200, 1400, 1600 µM) was added and incubated for 2 h. After the medium was discarded, cell viability was determined using the CCK-8 assay to establish the optimal H2O2 concentration for inducing an oxidative stress model. The cells without H2O2 treatment were used as control group.

H2O2-induced HepG2 cells [1] = experiment: MDA content in H2O2-induced HepG2 cells (kit); assay type: cell-based; conditions: peptide pretreatment 24 h, then 1.4 mM H2O2 2 h; cell lysate; mean ± SD; model group 10.31 ± 0.23
Procedure: (§1) After the medium was discarded, 100 μL peptides of different concentrations were added to the wells and cultured for an additional 24 h. After discarding the medium and then being washed, the cells were incubated with 100 μL of an appropriate concentration of H2O2. After incubation for 2 h, the supernatant was collected, and the content of IL-8 was determined strictly, according to the kit instructions. Afterwards, the cells were washed twice with PBS, and then the cell viability was measured. Alternatively, the cells were disrupted with 300 μL of cell lysate and centrifuged at 6000× g at 4 °C for 15 min. The supernatant was collected and stored at −80 °C. The protein concentration was determined using the Bio-Rad DC analysis with BSA as the standard curve. In addition, the contents of SOD, CAT, and MDA in cell lysates were determined in strict accordance with the kit instructions.

H2O2-induced HepG2 cells [2] = experiment: SOD activity in H2O2-induced HepG2 cells (kit); assay type: cell-based; conditions: for activity of SOD compared with the model group: peptide pretreatment, H2O2-induced HepG2 cells, p < 0.05
Procedure: as §1

H2O2-induced HepG2 cells [3] = experiment: CAT activity in H2O2-induced HepG2 cells (kit); assay type: cell-based; conditions: for activity of CAT compared with the model group: peptide pretreatment, H2O2-induced HepG2 cells, p < 0.05
Procedure: as §1

H2O2-induced HepG2 cells [4] = experiment: IL-8 content in H2O2-induced HepG2 cells (ELISA kit); assay type: cell-based; conditions: peptide pretreatment 24 h, then 1.4 mM H2O2 2 h; supernatant; p < 0.05; model group 154.02 ± 2.80 pg/mL
Procedure: as §1

[5] = DPPH radical scavenging activity; assay type: biochemical; conditions: 100 μL sample + 100 μL 0.1 mmol/L DPPH in anhydrous ethanol, 30 min dark, room temperature, absorbance 517 nm; sample concentration not given; mean ± SD, at least three repeats
Procedure: Slightly modified according to the previous method, the 100 μL sample solution was mixed with 100 μL 0.1 mmol/L DPPH anhydrous ethanol solution and reacted in the dark at room temperature for 30 min. Then the absorbance was measured at 517 nm. The DPPH free radical scavenging rate of the sample was calculated by the formula below.(1) DPPH radical scavenging rate(%)=(1−A1−A2/A0)×100, where A1 represented the absorbance value the sample reaction with DPPH anhydrous ethanol solution; A2 represented the absorbance value of the sample’s reaction with anhydrous ethanol solution; A0 represented the absorbance of the reaction mixture solution without the sample.

[6] = Hydroxyl radical scavenging activity; assay type: biochemical; conditions: salicylic acid / FeSO4 / H2O2 6.0 mmol/L, 37 °C, 0.5 h, absorbance 510 nm; sample concentration not given; mean ± SD, at least three repeats
Procedure: The hydroxyl radical scavenging activities of samples were performed as in the previous method with slight modifications. Briefly, 6.0 mmol/L salicylic acid solution and FeSO4 solution were prepared, and 0.5 mL of each solution was added into a reaction tube, followed by the addition of a 0.5 mL sample solution and a 0.5 mL H2O2 solution of 6.0 mmol/L. After mixing, the reaction was conducted in a 37 °C water bath for 0.5 h, and then the absorbance was measured at 510 nm. Meanwhile, the sample was replaced with distilled water and used as the blank group, and H2O2 was replaced with distilled water and used as the control group. The hydroxyl radical scavenging rate of the sample was calculated according to the formula below.(3) hydroxyl radical scavenging rate(%)=(1-A0−A1/A)×100, where A0, A1, and A represented the absorbance values of the sample group, blank group, and control group, respectively.

[7] = ABTS radical scavenging activity; assay type: biochemical; conditions: 40 μL sample + 160 μL ABTS working solution, 10 min dark, room temperature, absorbance 734 nm; sample concentration not given; mean ± SD, at least three repeats
Procedure: Slightly modified according to the previous method, 7.4 mmol/L ABTS solution was mixed with the 2.6 mmol/L K2S2O8 solution in equal volume, and then was kept in the dark for 16 h. The ABTS working solution was obtained when the mixture was subsequently diluted with anhydrous ethanol to adjust the absorbance to a range of 0.70 ± 0.02 at 734 nm. Then, the sample solution of 40 μL was mixed with 160 μL ABTS working solution and reacted at room temperature for 10 min in the dark on 96 microporous plates. Meanwhile, the sample was replaced with distilled water as the blank. The absorbance was measured at 734 nm, and the ABTS radical scavenging rate of samples was calculated using the formula below.(2) ABTS radical scavenging rate(%)=[…], where A0 and A1 represented the absorbance values of the blank and sample groups.

Compound	cell viability (HepG2 cells; H2O2 0.8 µM)	cell survival rate (HepG2 cells; H2O2 1.4 mM)	cell viability (HepG2 cells; H2O2 1.6 mM)	MDA content (H2O2-induced HepG2 cells [1])	activity of SOD in cells (H2O2-induced HepG2 cells [2]; peptide pretreatment 24 h, then 1.4 mM H2O2 2 h, cell lysate, mean ± SD, model group 6.17 ± 0.41, control 14.35 ± 0.06)	activity of SOD compared with the model group (H2O2-induced HepG2 cells [2])	activity of CAT in cells (H2O2-induced HepG2 cells [3]; peptide pretreatment 24 h, then 1.4 mM H2O2 2 h, cell lysate, mean ± SD, model group 26.01 ± 1.78, control 60.80 ± 1.10)	activity of CAT compared with the model group (H2O2-induced HepG2 cells [3])	intracellular IL-8 content compared with the model group (H2O2-induced HepG2 cells [4])	DPPH radical scavenging rate [5]	hydroxyl radical scavenging rate [6]	ABTS radical scavenging rate [7]
OO [H2O2, hydrogen peroxide]	91.77 ± 4.53%	51.29 ± 3.06%	37.01 ± 3.20%									
FGFDGDF [Phe-Gly-Phe-Asp-Gly-Asp-Phe, antioxidant peptide identified from yak skin hydrolysate YSP-I, synthesized]				3.945 ± 0.21 nmol/mg prot	11.83 ± 0.16 U/mg prot	significantly more improved	47.49 ± 1.14 U/mg prot	significantly more improved	significantly reduced	25.80% ± 1.82%	44.44% ± 1.94%	19.15% ± 1.59%
GFDGD [Gly-Phe-Asp-Gly-Asp, antioxidant peptide identified from yak skin hydrolysate YSP-I, synthesized]				5.55 ± 0.16 nmol/mg prot		significantly more improved		significantly more improved	significantly reduced		41.61% ± 1.73%	
GHNGLDGL [Gly-His-Asn-Gly-Leu-Asp-Gly-Leu, antioxidant peptide identified from yak skin hydrolysate YSP-I, synthesized]				4.65 ± 0.39 nmol/mg prot		significantly more improved		significantly more improved	significantly reduced			
GPAGPQGPR [Gly-Pro-Ala-Gly Pro-Gln-Gly-Pro-Arg, antioxidant peptide identified from yak skin hydrolysate YSP-I, synthesized]				5.96 ± 0.30 nmol/mg prot		significantly more improved		significantly more improved	significantly reduced			
LMGPR [Leu-Met-Gly-Pro-Arg, antioxidant peptide identified from yak skin hydrolysate YSP-I, synthesized]				5.91 ± 0.27 nmol/mg prot		significantly more improved		significantly more improved	significantly reduced	23.56% ± 2.68%		
